Reference: US4591582A, “Organophosphorus compounds useful as anticonvulsant agents” (priority 1984, dated 1986)
Where two headings read alike, the source gives them in different places.

Legend:
[1] = test system: seizures induced by subcutaneous bicuculline (scBic); details: data taken from Kupferberg, 1980, cited from earlier work; for ED50, scBic: bicuculline 2.7 mg/kg s.c.
[2] = test system: convulsions induced in mice by MES and scMet; details: reported, Kupferberg, 1980; cited from earlier work
[3] = test system: seizures induced by subcutaneous pentylenetetrazol (Metrazol) (scMet); details: data taken from Kupferberg, 1980, cited from earlier work; for ED50, scMet: pentylenetetrazol 85 mg/kg s.c.
[4] = test system: seizures induced by subcutaneous picrotoxin (scPic); details: data taken from Kupferberg, 1980, cited from earlier work; for ED50, scPic: picrotoxin 3.2 mg/kg s.c.
[5] = Rotorod neurotoxicity test (failure to remain on rotating rod, 6 rpm, for 1 min); format: in vivo, male Carworth Farms No. 1 mice; details: mouse, in vivo, ip; mice, i.p., 30 mins. after dosing
Description: (§1) All tests were performed on male Carworth Farms No. 1 mice by the Antiepileptic Drug Development Program administered by the Section of Epilepsy, National Institutes of Health, Bethesda, MD 20014, according to previously described procedures [DHEW Publication No. (NIH) 76-1093 (1976), Bethesda, MD]. These involved the inhibition of seizures induced by maximal electroshock (MES) and by three subcutaneously administered chemicals: 85 mg/kg pentylenetetrazol (Metrazol) (scMet), 2.7 mg/kg bicuculline (scBic) and 3.2 mg/kg picrotoxin (scPic). Test compounds were solubilized in polyethylene glycol 400 and administered intraperitoneally in a volume of 0.01 ml/g. The time of peak anticonvulsant activity were determined for II (200 mg/kg), III (300 mg/kg) and IV (300 mg/kg) against MES and for I (200 mg/kg) against scMet with dosing of I-III at 0.5, […]. using four mice per dose. Neurotoxicity was evaluated by placing an animal on a 1 in. diameter knurled plastic rod and rotating at 6 rpm. Failure of the animal to remain on the rod for 1 min. signified neurological toxicity. This testing was performed using groups of eight mice on a time course basis by dosing with I (900 mg/kg), II (400 mg/kg) and III (360 mg/kg) after 0.5, 1, 2 and 4 hrs. and with IV (580 mg/kg) after an additional 6 and 24 hrs. The neurotoxicity was also similarly quantified, with observations taken 30 mins. after dosing, as follows (compound/mg/kg): I, 400, 500, 600, 700, 800, 900; II, 350, 400, 430, 470; III, 230, 260, 300, 360, 420; IV, 150, 300, 400, 500, 580, 600. Quantification of anticonvulsant activity was similarly determined as follows (compound, test, mg/kg), I, MES, 100, 140, 150, 160, 170, 190, 250; I, scMet, 140, 200, 240, 300, 400, 500; I, scBic, 350, 400, 450, 475, 500; I, scPic, 150, 250, 330, 440, 500; II, MES, 130, 170, 200, 230; II, scMet, 150, 180, 230, 300; III, MES, 220, 240, 280, 290, 300; III, scMet, 300, 400, 500, 600; IV, MES, 150, 220, 300, 400, 500, 600; IV, scMet, 300, 410, 470, 600, 760. […] I=dimethyl ester of 3-aminophenylphosphonic acid; II=diethyl ester of 3-aminophenylphosphonic acid; III=diisopropyl ester of 3-aminophenylphosphonic acid; and IV=diethyl-2-acetamidophenylphosphate.

[6] = test system: seizures induced by subcutaneous pentylenetetrazol (Metrazol) (scMet); assay: inhibition of seizures induced by subcutaneous pentylenetetrazol (Metrazol) (scMet), 85 mg/kg; format: in vivo, male Carworth Farms No. 1 mice; details: for P.I. (protective index, TD50/ED50), scMet / ED50, scMet: i.p.
Description: as §1

[7] = test system: seizures induced by maximal electroshock (MES); assay: inhibition of seizures induced by maximal electroshock (MES) in mice, intraperitoneal; format: in vivo, male Carworth Farms No. 1 mice; details: for ED50, MES / P.I. (protective index, TD50/ED50), MES: i.p.; for factor of greater protection against MES than VPA: relative to VPA (valproic acid)
Description: as §1

[8] = test system: seizures induced by maximal electroshock (MES); details: data taken from Kupferberg, 1980; cited from earlier work
[9] = test system: neurotoxicity (Rotorod); assay: Rotorod neurotoxicity test (failure to remain on rotating rod, 6 rpm, for 1 min); format: in vivo, male Carworth Farms No. 1 mice
Description: as §1

[10] = test system: convulsions induced in mice by MES and scMet; assay: time course of protection against convulsions induced by MES and scMet (FIG. 1); format: in vivo; details: i.p., 300 mg/kg
Description: FIG. 1 is a graphical representation showing the time course of percent protection by intraperitoneally administered I-IV against seizures induced by maximal electroshock (MES) or subcutaneous pentylenetetrazol (Metrazol) (scMet). Key: ( ) I (dimethyl ester of 3-aminophenylphosphonic acid) 400 mg/kg, scMet: ( ) II (diethyl ester of 3-aminophenylphosphonic acid) 200 mg/kg, MES; ( ) III (diisopropyl ester of 3-aminophenylphosphonic acid) 300 mg/kg, MES: ( ) IV (diethyl-2-acetamidophenylphosphate) 300 mg/kg, MES.
All tests were performed on male Carworth Farms No. 1 mice by the Antiepileptic Drug Development Program administered by the Section of Epilepsy, National Institutes of Health, Bethesda, MD 20014, according to previously described procedures [DHEW Publication No. (NIH) 76-1093 (1976), Bethesda, MD]. […] The time of peak anticonvulsant activity were determined for II (200 mg/kg), III (300 mg/kg) and IV (300 mg/kg) against MES and for I (200 mg/kg) against scMet with dosing of I-III at 0.5, […]. using four mice per dose. Neurotoxicity was evaluated by placing an animal on a 1 in. diameter knurled plastic rod and rotating at 6 rpm. […]

[11] = test system: seizures induced by subcutaneous bicuculline (scBic); assay: inhibition of seizures induced by subcutaneous bicuculline (scBic), 2.7 mg/kg; format: in vivo, male Carworth Farms No. 1 mice
Description: as §1, with “600.” for “600. Quantification of anticonvulsant activity was similarly determined as follows (compound, test, mg/kg), I, MES, 100, 140, 150, 160, 170, 190, 250; I, scMet, 140, 200, 240, 300, 400, 500; I, scBic, 350, 400, 450, 475, 500; I, scPic, 150, 250, 330, 440, 500; II, MES, 130, 170, 200, 230; II, scMet, 150, 180, 230, 300; III, MES, 220, 240, 280, 290, 300; III, scMet, 300, 400, 500, 600; IV, MES, 150, 220, 300, 400, 500, 600; IV, scMet, 300, 410, 470, 600, 760.”

[12] = test system: seizures induced by subcutaneous picrotoxin (scPic); format: in vivo, male Carworth Farms No. 1 mice
Description: as §1, with “600.” for “600. Quantification of anticonvulsant activity was similarly determined as follows (compound, test, mg/kg), I, MES, 100, 140, 150, 160, 170, 190, 250; I, scMet, 140, 200, 240, 300, 400, 500; I, scBic, 350, 400, 450, 475, 500; I, scPic, 150, 250, 330, 440, 500; II, MES, 130, 170, 200, 230; II, scMet, 150, 180, 230, 300; III, MES, 220, 240, 280, 290, 300; III, scMet, 300, 400, 500, 600; IV, MES, 150, 220, 300, 400, 500, 600; IV, scMet, 300, 410, 470, 600, 760.”

[13] = test system: neurotoxicity (Rotorod); details: data taken from Kupferberg, 1980; cited from earlier work
[14] = mice, pentylenetetrazol 85 mg/kg s.c.

Structure (SMILES): CCC1(c2ccccc2)C(=O)NC(=O)NC1=O [Phenobarbital]
- ED50, scBic [1]: 37.72 mg/kg
- time to peak effect [2]: 60 min
- ED50, scMet [3]: 13.17 mg/kg
- ED50, scPic [4]: 27.51 mg/kg

Structure (SMILES): CCOP(=O)(OCC)c1cccc(N)c1 [II, diethyl ester of 3-aminophenylphosphonic acid]
- TD50 at 0.5 h [5]: 389 mg/kg
- P.I. (protective index, TD50/ED50), scMet ([6]; mice): 1.86
- ED50, scMet [6, 14]: 208.73 mg/kg
- ED50, MES ([7]; mice): 175.43 mg/kg
- P.I. (protective index, TD50/ED50), MES ([7]; mice): 2.22
- factor of greater protection against MES than VPA [7]: 1.4 times

Structure (SMILES): CCCC(CCC)C(=O)O [VPA, Valproic Acid]
- ED50, scBic [1]: 359.95 mg/kg
- time to peak effect [2]: 16 min
- ED50, MES [8]: 217.66 mg/kg
- ED50, scMet [3]: 148.59 mg/kg
- ED50, scPic [4]: 387.21 mg/kg

Structure (SMILES): CCC1(C)CC(=O)NC1=O (stereo not drawn) [Ethosuximide]
- ED50, scBic [1]: 459.01 mg/kg
- time to peak effect [2]: 30 min
- ED50, scPic [4]: 242.69 mg/kg

Structure (SMILES): CC(C)OP(=O)(OC(C)C)c1cccc(N)c1 [III, diisopropyl ester of 3-aminophenylphosphonic acid]
- TD50 at 0.5 h [5]: 311 mg/kg
- ED50, MES ([7]; mice): 266.49 mg/kg
- P.I. (protective index, TD50/ED50), MES ([7]; mice): 1.17

Structure (SMILES): CCOP(=O)(OCC)Oc1ccccc1NC(C)=O [IV, diethyl-2-acetamidophenylphosphate]
- TD50 at 0.5 h [5]: 458 mg/kg
- time course of neurotoxicity ([9]; mice, i.p., IV 580 mg/kg, up to 24 hours): high and prolonged toxicity beginning after two hours and persisting at this level from 6 to 24 hours
- ED50 ([6]; Mus musculus, ip, mice, pentylenetetrazol 85 mg/kg s.c.): 444 mg/kg
- P.I. (protective index, TD50/ED50), scMet ([6]; mice): 1.03
- latent protective effect in time course [10]: slight degree of latent protective effect
- ED50 ([7]; Mus musculus, ip, mice): 348 mg/kg
- P.I. (protective index, TD50/ED50), MES ([7]; mice): 1.31

Structure (SMILES): COP(=O)(OC)c1cccc(N)c1 [I, dimethyl ester of 3-aminophenylphosphonic acid]
- TD50 at 0.5 h [5]: 680 mg/kg
- neurotoxicity dose level ([9]; compared with valproic acid): superior neurotoxicity dose level
- P.I. (protective index, TD50/ED50), scMet ([6]; mice): 2.83
- ED50, scMet [6, 14]: 239.93 mg/kg
- result in scMet test compared with VPA ([6]; relative to VPA): nearly identical results as VPA
- activity profile in all three testing procedures compared with trimethadione ([6]; scMet, scBic, scPic): very similar to trimethadione
- P.I. (protective index, TD50/ED50), scBic ([11]; mice, i.p., TD50/ED50): 1.56
- ED50, scBic ([11]; mice, i.p., bicuculline 2.7 mg/kg s.c.): 435.94 mg/kg
- effectiveness against scBic relative to VPA ([11]; relative to VPA): 1.3 times
- times better than valproic acid against chemically induced seizures ([11]; second of two chemically induced seizures (scBic)): 1.3 times
- ED50, MES ([7]; mice): 166.46 mg/kg
- P.I. (protective index, TD50/ED50), MES ([7]; mice): 4.08
- factor of greater protection against MES than VPA [7]: 2.6 times
- factor of greater protection against MES than VPA ([7]; listed as dimethyl ester of 3-aminophenylphosphonic acid): about 2.5 times
- times better than valproic acid against chemically induced seizures ([12]; first of two chemically induced seizures (scPic)): 1.8 times
- P.I. (protective index, TD50/ED50), scPic ([12]; mice, i.p., TD50/ED50): 2.02
- ED50, scPic ([12]; mouse, in vivo, ip): 336.20 mg/kg
- effectiveness against scPic relative to VPA ([12]; relative to VPA): 1.8 times

Structure (SMILES): CN1C(=O)OC(C)(C)C1=O [Trimethadione]
- ED50, scBic [1]: 532.12 mg/kg
- P.I. (protective index, TD50/ED50), scBic [1]: 1.54
- TD50, Rotorod neurotoxicity test [13]: 819.07 mg/kg
- time to peak effect [2]: 60 min
- P.I. (protective index, TD50/ED50), scMet [3]: 2.73
- ED50, scMet [3]: 300.45 mg/kg
- P.I. (protective index, TD50/ED50), scPic [4]: 2.01
- ED50, scPic [4]: 408.09 mg/kg
